# Earlier results as cited in patent publication US6774131B1, “Remedies for endothelin-induced diseases” (Yamanouchi Pharmaceutical Co., Ltd., priority 2000, dated 2004).
# Columns and labels:
# [1] = 20 mg; 6th International Conference on Endothelin, Abstract No. 219; cited from earlier work
# prostate cancer patients = settings: reported, Proceeding of ASCO,19,1314,2000; cited from earlier work
smiles,measurement,setting,value
"CCCCN(CCCC)C(=O)CN1C[C@H](c2ccc3c(c2)OCO3)[C@@H](C(=O)O)[C@@H]1c1ccc(OC)cc1 [ABT-627, 1-(N,N-dibutylcarbamoylmethyl)-2(R)-(4-methoxyphenyl)-4(S)-(3,4-methylenedioxyphenyl)pyrrolidine-3(R)-carboxylic acid]",AUC,[1],802 ng·h/mL
same,Cmax,[1],93.5 ng/mL
same,T max,[1],0.6 h
same,T ½,[1],28.4 h
same,minimum effective dose,prostate cancer patients,10 mg
